{"source": "ChEMBL document CHEMBL4406790", "about": "“Targeted Treatments for Chronic Obstructive Pulmonary Disease (COPD) Using Low-Molecular-Weight Drugs (LMWDs)” (J Med Chem, 2019)", "key": {"[1]": {"target": "3',5'-cyclic-AMP phosphodiesterase 4B (Homo sapiens, UniProt Q07343)", "sequence (Q07343 whole entry)": "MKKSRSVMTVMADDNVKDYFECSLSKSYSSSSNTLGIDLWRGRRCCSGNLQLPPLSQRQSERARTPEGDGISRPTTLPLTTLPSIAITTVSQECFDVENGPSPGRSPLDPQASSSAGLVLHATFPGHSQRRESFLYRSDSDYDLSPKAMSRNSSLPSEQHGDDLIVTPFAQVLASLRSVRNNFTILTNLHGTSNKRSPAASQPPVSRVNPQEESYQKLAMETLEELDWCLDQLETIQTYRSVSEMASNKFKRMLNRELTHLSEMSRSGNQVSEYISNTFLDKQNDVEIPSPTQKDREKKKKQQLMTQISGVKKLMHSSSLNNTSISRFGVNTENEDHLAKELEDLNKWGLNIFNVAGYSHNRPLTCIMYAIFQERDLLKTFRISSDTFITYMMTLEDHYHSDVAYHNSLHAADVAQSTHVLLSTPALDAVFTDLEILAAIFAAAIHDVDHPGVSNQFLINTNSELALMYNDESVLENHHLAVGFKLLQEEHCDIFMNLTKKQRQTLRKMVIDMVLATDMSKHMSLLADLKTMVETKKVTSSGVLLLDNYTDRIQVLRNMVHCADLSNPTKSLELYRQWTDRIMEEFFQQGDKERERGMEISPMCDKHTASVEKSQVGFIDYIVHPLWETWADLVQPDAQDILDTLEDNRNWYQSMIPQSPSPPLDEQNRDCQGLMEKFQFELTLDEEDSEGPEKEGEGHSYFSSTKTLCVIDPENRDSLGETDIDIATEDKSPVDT", "test": "Inhibition of PDE4B2 (unknown origin)"}, "[2]": {"target": "T1, Beta-2 adrenergic receptor (Homo sapiens, UniProt P07550)", "T1 sequence (P07550 whole entry)": "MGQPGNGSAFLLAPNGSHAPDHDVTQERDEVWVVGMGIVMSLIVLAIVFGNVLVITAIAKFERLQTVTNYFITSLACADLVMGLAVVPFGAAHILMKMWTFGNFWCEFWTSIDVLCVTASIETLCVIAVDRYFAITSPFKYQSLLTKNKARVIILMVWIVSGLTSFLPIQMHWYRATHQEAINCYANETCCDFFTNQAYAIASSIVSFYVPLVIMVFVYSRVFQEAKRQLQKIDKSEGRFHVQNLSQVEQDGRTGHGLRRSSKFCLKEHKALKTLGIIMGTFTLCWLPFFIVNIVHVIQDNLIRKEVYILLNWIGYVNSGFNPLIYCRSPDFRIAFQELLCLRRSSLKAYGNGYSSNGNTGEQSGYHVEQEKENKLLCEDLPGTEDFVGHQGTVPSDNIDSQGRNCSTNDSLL", "test": "Inhibition of beta2 adrenoceptor (unknown origin)"}, "[3]": {"target": "T2, Muscarinic acetylcholine receptor M2 (Homo sapiens, UniProt P08172)", "T2 sequence (P08172 whole entry)": "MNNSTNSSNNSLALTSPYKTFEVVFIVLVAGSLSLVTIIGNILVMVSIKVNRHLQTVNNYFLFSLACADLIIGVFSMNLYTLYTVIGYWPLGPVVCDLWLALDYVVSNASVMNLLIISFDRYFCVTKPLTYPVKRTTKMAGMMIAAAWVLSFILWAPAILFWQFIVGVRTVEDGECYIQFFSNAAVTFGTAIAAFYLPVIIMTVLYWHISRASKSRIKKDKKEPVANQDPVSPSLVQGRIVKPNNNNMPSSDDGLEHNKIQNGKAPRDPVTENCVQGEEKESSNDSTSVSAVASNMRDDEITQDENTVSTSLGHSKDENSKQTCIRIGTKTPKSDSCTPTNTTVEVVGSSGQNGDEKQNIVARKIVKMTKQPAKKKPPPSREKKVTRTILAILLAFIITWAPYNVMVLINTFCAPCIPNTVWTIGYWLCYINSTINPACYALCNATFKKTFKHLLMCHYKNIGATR", "test": "Inhibition of M2 receptor (unknown origin)"}, "[4]": {"test": "Half life in human", "format": "ADME"}, "[5]": {"test": "Oral bioavailability in human", "format": "ADME, organism-based", "settings": "in vivo"}, "[6]": {"target": "Muscarinic acetylcholine receptor M3 (Homo sapiens, UniProt P20309)", "sequence (P20309 whole entry)": "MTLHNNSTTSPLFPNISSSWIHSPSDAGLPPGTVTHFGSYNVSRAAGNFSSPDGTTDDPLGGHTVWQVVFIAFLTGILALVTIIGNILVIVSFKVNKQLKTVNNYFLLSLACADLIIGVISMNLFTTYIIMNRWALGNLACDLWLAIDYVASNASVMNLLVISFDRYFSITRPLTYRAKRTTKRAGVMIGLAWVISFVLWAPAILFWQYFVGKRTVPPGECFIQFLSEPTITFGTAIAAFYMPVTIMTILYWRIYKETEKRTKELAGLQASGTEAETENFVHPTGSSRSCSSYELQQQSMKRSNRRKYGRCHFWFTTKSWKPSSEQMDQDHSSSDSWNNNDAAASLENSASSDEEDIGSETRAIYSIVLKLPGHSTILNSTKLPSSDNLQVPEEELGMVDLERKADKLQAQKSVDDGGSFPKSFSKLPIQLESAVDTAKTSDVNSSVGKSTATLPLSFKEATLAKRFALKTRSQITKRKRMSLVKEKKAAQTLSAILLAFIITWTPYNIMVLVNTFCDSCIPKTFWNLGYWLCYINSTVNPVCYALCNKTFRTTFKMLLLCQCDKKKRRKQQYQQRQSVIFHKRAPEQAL", "test": "Antagonist activity at human M3 receptor"}, "[7]": {"target": "T1, Beta-2 adrenergic receptor", "test": "Agonist activity at human beta2 adrenoceptor"}, "[8]": {"test": "Inhibition of TNFalpha-induced NFkappaB (unknown origin)", "design": "species or system Homo sapiens"}, "[9]": {"target": "Macrophage metalloelastase (Homo sapiens, UniProt P39900)", "sequence (P39900 whole entry)": "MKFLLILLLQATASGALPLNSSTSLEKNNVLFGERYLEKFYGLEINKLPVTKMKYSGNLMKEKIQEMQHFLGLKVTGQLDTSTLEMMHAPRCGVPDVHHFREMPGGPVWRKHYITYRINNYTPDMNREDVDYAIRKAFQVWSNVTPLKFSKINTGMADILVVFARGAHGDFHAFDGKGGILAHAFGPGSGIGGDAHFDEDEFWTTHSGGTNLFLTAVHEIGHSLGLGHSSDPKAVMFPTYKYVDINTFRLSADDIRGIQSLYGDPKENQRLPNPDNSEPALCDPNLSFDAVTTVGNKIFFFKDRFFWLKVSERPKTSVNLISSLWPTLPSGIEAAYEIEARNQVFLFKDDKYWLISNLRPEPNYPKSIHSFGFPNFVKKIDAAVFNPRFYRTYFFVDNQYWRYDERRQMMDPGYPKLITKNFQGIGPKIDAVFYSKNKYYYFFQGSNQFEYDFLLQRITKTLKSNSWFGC", "test": "Inhibition of MMP12 (unknown origin)"}, "[10]": {"target": "Voltage-gated inwardly rectifying potassium channel KCNH2 (Homo sapiens, UniProt Q12809)", "sequence (Q12809 whole entry)": "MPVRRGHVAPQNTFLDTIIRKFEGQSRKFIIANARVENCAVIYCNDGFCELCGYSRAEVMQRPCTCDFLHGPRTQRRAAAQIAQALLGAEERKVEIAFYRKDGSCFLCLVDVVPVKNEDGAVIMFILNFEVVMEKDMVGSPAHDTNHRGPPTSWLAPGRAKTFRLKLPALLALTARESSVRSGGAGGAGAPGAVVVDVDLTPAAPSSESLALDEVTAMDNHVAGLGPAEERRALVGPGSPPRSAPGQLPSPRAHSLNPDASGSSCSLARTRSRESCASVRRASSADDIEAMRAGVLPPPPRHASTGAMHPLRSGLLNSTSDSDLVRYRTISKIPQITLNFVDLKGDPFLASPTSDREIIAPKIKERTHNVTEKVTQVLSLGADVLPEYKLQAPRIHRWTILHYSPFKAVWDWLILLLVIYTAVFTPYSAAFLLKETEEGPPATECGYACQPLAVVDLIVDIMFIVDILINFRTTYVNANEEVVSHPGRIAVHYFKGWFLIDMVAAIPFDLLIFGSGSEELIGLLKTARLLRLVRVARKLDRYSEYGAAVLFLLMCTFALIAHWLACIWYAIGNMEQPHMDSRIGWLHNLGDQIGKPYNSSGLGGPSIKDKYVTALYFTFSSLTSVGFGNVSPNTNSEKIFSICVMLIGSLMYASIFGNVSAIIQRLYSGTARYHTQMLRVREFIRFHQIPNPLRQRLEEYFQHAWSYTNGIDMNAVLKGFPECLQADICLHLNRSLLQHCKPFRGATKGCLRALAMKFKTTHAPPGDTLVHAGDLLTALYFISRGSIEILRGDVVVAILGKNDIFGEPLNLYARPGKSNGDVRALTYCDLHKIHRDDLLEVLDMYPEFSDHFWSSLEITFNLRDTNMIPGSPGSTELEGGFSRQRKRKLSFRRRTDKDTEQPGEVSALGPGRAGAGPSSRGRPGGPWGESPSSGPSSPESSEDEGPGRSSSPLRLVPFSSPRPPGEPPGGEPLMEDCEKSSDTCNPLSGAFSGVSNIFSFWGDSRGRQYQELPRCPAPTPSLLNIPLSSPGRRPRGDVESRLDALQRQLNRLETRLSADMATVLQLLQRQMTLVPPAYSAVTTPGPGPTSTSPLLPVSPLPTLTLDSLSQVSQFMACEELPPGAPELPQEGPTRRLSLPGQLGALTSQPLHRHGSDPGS", "test": "Inhibition of human ERG by high throughput automated patch clamp method"}}, "data": [{"compound": "COc1cccc(Nc2c(C(N)=O)cnc3c(C)cc(S(=O)(=O)c4cccc(C(=O)Nc5ccc(C#CCCCNC[C@H](O)c6ccc(O)c7[nH]c(=O)ccc67)cc5)c4)cc23)c1", "values": [{"measurement": "IC50", "setting": "[1]", "result": 5, "unit": "nM"}, {"measurement": "IC50", "setting": "[2]", "result": 11, "unit": "nM"}]}, {"compound": "C[N+]12CCC(CC1)C(OCC(O)(c1ccccc1)C1CCCC1)C2", "note": "(stereo unspecified) [BENCYCLOQUIDIUM BROMIDE]", "values": [{"measurement": "Ki", "setting": "[3]", "result": 6.17, "unit": "nM"}]}, {"compound": "CC1=C(C#N)[C@@H](c2ccc(C#N)cc2S(C)(=O)=O)N(C)C(=O)N1c1cccc(C(F)(F)F)c1", "values": [{"measurement": "half-life", "setting": "[4]", "result": 8.5, "unit": "h"}, {"measurement": "bioavailability", "setting": "[5]", "result": 63, "unit": "%"}]}, {"compound": "CN(CCCn1nnc2cc(CNC[C@H](O)c3ccc(O)c4[nH]c(=O)ccc34)ccc21)[C@H]1CC[C@H](OC(=O)C(O)(c2cccs2)c2cccs2)CC1", "note": "[NAVAFENTEROL]", "values": [{"measurement": "IC50", "setting": "[6]", "result": 1.58, "unit": "nM"}, {"measurement": "EC50", "setting": "[7]", "result": 0.251, "unit": "nM"}]}, {"compound": "O=C(Nc1cc(C(F)(F)F)cc(C(F)(F)F)c1)c1cc(Cl)ccc1O", "note": "[IMD-0354]", "values": [{"measurement": "IC50", "setting": "[8]", "result": 1200, "unit": "nM"}]}, {"compound": "COc1cc(NC(=O)OCCN(C)[C@H]2CC[C@H](OC(=O)C(O)(c3cccs3)c3cccs3)CC2)c(Cl)cc1CNC[C@H](O)c1ccc(O)c2[nH]c(=O)ccc12", "note": "[LAS190792]", "values": [{"measurement": "EC50", "setting": "[7]", "result": 0.251, "unit": "nM"}]}, {"compound": "COc1cc(NC(=O)CCN2CCC(OC(=O)Nc3ccccc3-c3ccccc3)CC2)c(Cl)cc1CNC[C@H](O)c1ccc(O)c2[nH]c(=O)ccc12", "note": "[BATEFENTEROL]", "values": [{"measurement": "IC50", "setting": "[6]", "result": 1.58, "unit": "nM"}]}, {"compound": "CC(C)c1ncc(C(=O)N2CCOC3(CCN(Cc4ccc(F)c(CCNC[C@H](O)c5ccc(O)c6[nH]c(=O)sc56)c4)CC3)C2)s1", "values": [{"measurement": "IC50", "setting": "[6]", "result": 1.58, "unit": "nM"}, {"measurement": "EC50", "setting": "[7]", "result": 0.251, "unit": "nM"}]}, {"compound": "COc1ccc(Oc2ccc(S(=O)(=O)c3ccccc3CC(=O)NO)cc2)cc1", "values": [{"measurement": "IC50", "setting": "[9]", "result": 0.2, "unit": "nM"}]}, {"compound": "CC(C)(O)c1coc(S(=O)(=O)NC(=O)Nc2c3c(cc4c2CCC4)CCC3)c1", "values": [{"measurement": "IC50", "setting": "[10]", "result": "> 30000", "unit": "nM"}, {"measurement": "half-life", "setting": "[4]", "result": 3.27, "unit": "h"}, {"measurement": "bioavailability", "setting": "[5]", "result": 68, "unit": "%"}]}]}
